PubChem BioAssay (NCI)
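Interpolation was linear, between the two tested concentrations surrounding the appropriate level; five concentrations were tested over 48 hours in 96-well plates. TGI marks complete inhibition of growth.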

What follows are compounds tested on HCT-15 colon (assay: growth of human tumour cells (NCI), 48 h).

Structure (SMILES)	TGI [µM]
O=c1[nH]cnc2c1cnn2Cc1cn(CCCCO)nn1	> 100
CN1CCc2c([nH]c3ccccc23)C1	> 100
CC(C)(C)OC(=O)N(CCCCN(CCCNC(=O)C(F)(F)F)C(=O)OC(C)(C)C)CCCNC(=O)C(F)(F)F	> 100
CCOC1(OCC)C2C=CC1C(COS(=O)(=O)c1ccc(C)cc1)C2COS(=O)(=O)c1ccc(C)cc1 (stereo not given)	> 100
Cc1[nH]c(=O)nc2nc3ccc(Cl)cc3c(NCCNCCO)c12	31.9

Each compound was assayed on UO-31 renal (assay: growth of human tumour cells (NCI), 48 h).

Structure (SMILES)	TGI [µM]
O=[N+]([O-])C[C@@]12O[C@]3(O)C4C5CC(C6C5C3C61)C42 (stereo not given in full)	> 100
C=C(Cl)C(=CCl)CCC(Br)C(C)(C)Cl (mixture of isomers)	> 10
CN1C(=O)c2ccccc2OC12C=Cc1c(ccc3ccccc13)O2 (stereo not given)	35.8
CCCC(=O)NC(NC1CCCCC1)(C(=O)OCC)C(F)(F)F (stereo not given)	> 100
Cc1ccc2c(c1)C(=S)N1CSCC1c1nncn1-2 (stereo not given)	> 100
CC(C)NC(=O)OCc1c(COC(=O)NC(C)C)c(-c2cc[n+](COC(=O)C3CC3)cc2)n2c1CCC2	> 100
COC(=O)C1=C(C(=O)OC)N(c2ccc(OC)cc2[N+](=O)[O-])C(c2ccc(C)cc2)=CC1c1ccc(OC)cc1OC (stereo not given)	> 31.6
COc1cccc(C2c3cc4c(cc3OC(N3CCCCC3)C2C)OCO4)c1O (stereo not given)	81.1
CN(CCSCCN(C)C(=O)OC(C)(C)C)C(=O)OC(C)(C)C	> 100
CC1=C(C)CC2C(=O)N(c3cc(C(C)(C)C)ccc3C(C)(C)C)C(=O)C2C1 (stereo not given)	> 100
O=c1[nH]nnc2c1sc1ncccc12	> 100
Cc1ccc(C2SCC(=O)N2c2ccc(-n3c(-c4ccccc4)nc4ccccc4c3=O)cc2)cc1 (stereo not given)	59.1
O=[N+]([O-])c1ccc(CN(CCCl)OCCCl)cc1	> 100
CC1=NN(c2nc(N)nc(/C(C#N)=C\c3ccc([N+](=O)[O-])s3)n2)C(C)(C)C1	0.278
O=c1[nH]cnc2c1cnn2Cc1cn(CCCCO)nn1	> 100
CN1CCc2c([nH]c3ccccc23)C1	> 100
CC(C)(C)OC(=O)N(CCCCN(CCCNC(=O)C(F)(F)F)C(=O)OC(C)(C)C)CCCNC(=O)C(F)(F)F	> 100
CCOC1(OCC)C2C=CC1C(COS(=O)(=O)c1ccc(C)cc1)C2COS(=O)(=O)c1ccc(C)cc1 (stereo not given)	> 100
Cc1[nH]c(=O)nc2nc3ccc(Cl)cc3c(NCCNCCO)c12	20.7

These compounds were tested on MOLT-4 leukemia (assay: growth of human tumour cells (NCI), 48 h).

Structure (SMILES)	TGI [µM]
O=[N+]([O-])C[C@@]12O[C@]3(O)C4C5CC(C6C5C3C61)C42 (stereo not given in full)	> 100
C=C(Cl)C(=CCl)CCC(Br)C(C)(C)Cl (mixture of isomers)	> 10
CN1C(=O)c2ccccc2OC12C=Cc1c(ccc3ccccc13)O2 (stereo not given)	17.2
CCCC(=O)NC(NC1CCCCC1)(C(=O)OCC)C(F)(F)F (stereo not given)	> 100
Cc1ccc2c(c1)C(=S)N1CSCC1c1nncn1-2 (stereo not given)	> 100
CC(C)NC(=O)OCc1c(COC(=O)NC(C)C)c(-c2cc[n+](COC(=O)C3CC3)cc2)n2c1CCC2	> 100
COC(=O)C1=C(C(=O)OC)N(c2ccc(OC)cc2[N+](=O)[O-])C(c2ccc(C)cc2)=CC1c1ccc(OC)cc1OC (stereo not given)	55.2
COc1cccc(C2c3cc4c(cc3OC(N3CCCCC3)C2C)OCO4)c1O (stereo not given)	37.6
CN(CCSCCN(C)C(=O)OC(C)(C)C)C(=O)OC(C)(C)C	> 100
CC1=C(C)CC2C(=O)N(c3cc(C(C)(C)C)ccc3C(C)(C)C)C(=O)C2C1 (stereo not given)	> 100
O=c1[nH]nnc2c1sc1ncccc12	> 100
Cc1ccc(C2SCC(=O)N2c2ccc(-n3c(-c4ccccc4)nc4ccccc4c3=O)cc2)cc1 (stereo not given)	> 100
O=[N+]([O-])c1ccc(CN(CCCl)OCCCl)cc1	> 100
CC1=NN(c2nc(N)nc(/C(C#N)=C\c3ccc([N+](=O)[O-])s3)n2)C(C)(C)C1	0.379
O=c1[nH]cnc2c1cnn2Cc1cn(CCCCO)nn1	> 100
CN1CCc2c([nH]c3ccccc23)C1	> 100
CC(C)(C)OC(=O)N(CCCCN(CCCNC(=O)C(F)(F)F)C(=O)OC(C)(C)C)CCCNC(=O)C(F)(F)F	> 100
CCOC1(OCC)C2C=CC1C(COS(=O)(=O)c1ccc(C)cc1)C2COS(=O)(=O)c1ccc(C)cc1 (stereo not given)	99.3
Cc1[nH]c(=O)nc2nc3ccc(Cl)cc3c(NCCNCCO)c12	> 100

The compounds below were run on NCI-H460 lung (assay: growth of human tumour cells (NCI), 48 h).

Structure (SMILES)	TGI [µM]
O=[N+]([O-])C[C@@]12O[C@]3(O)C4C5CC(C6C5C3C61)C42 (stereo not given in full)	> 100
C=C(Cl)C(=CCl)CCC(Br)C(C)(C)Cl (mixture of isomers)	> 10
CN1C(=O)c2ccccc2OC12C=Cc1c(ccc3ccccc13)O2 (stereo not given)	42.5
CCCC(=O)NC(NC1CCCCC1)(C(=O)OCC)C(F)(F)F (stereo not given)	> 100
Cc1ccc2c(c1)C(=S)N1CSCC1c1nncn1-2 (stereo not given)	> 100
CC(C)NC(=O)OCc1c(COC(=O)NC(C)C)c(-c2cc[n+](COC(=O)C3CC3)cc2)n2c1CCC2	> 100
COC(=O)C1=C(C(=O)OC)N(c2ccc(OC)cc2[N+](=O)[O-])C(c2ccc(C)cc2)=CC1c1ccc(OC)cc1OC (stereo not given)	98.7
COc1cccc(C2c3cc4c(cc3OC(N3CCCCC3)C2C)OCO4)c1O (stereo not given)	24.4
CN(CCSCCN(C)C(=O)OC(C)(C)C)C(=O)OC(C)(C)C	> 100
CC1=C(C)CC2C(=O)N(c3cc(C(C)(C)C)ccc3C(C)(C)C)C(=O)C2C1 (stereo not given)	> 100
O=c1[nH]nnc2c1sc1ncccc12	> 100
Cc1ccc(C2SCC(=O)N2c2ccc(-n3c(-c4ccccc4)nc4ccccc4c3=O)cc2)cc1 (stereo not given)	27.6
O=[N+]([O-])c1ccc(CN(CCCl)OCCCl)cc1	> 100
CC1=NN(c2nc(N)nc(/C(C#N)=C\c3ccc([N+](=O)[O-])s3)n2)C(C)(C)C1	0.553
O=c1[nH]cnc2c1cnn2Cc1cn(CCCCO)nn1	> 100
CN1CCc2c([nH]c3ccccc23)C1	> 100
CC(C)(C)OC(=O)N(CCCCN(CCCNC(=O)C(F)(F)F)C(=O)OC(C)(C)C)CCCNC(=O)C(F)(F)F	> 100
CCOC1(OCC)C2C=CC1C(COS(=O)(=O)c1ccc(C)cc1)C2COS(=O)(=O)c1ccc(C)cc1 (stereo not given)	> 100
Cc1[nH]c(=O)nc2nc3ccc(Cl)cc3c(NCCNCCO)c12	25

What follows are compounds tested on LOX IMVI melanoma (assay: growth of human tumour cells (NCI), 48 h).

Structure (SMILES)	TGI [µM]
O=[N+]([O-])C[C@@]12O[C@]3(O)C4C5CC(C6C5C3C61)C42 (stereo not given in full)	> 100
C=C(Cl)C(=CCl)CCC(Br)C(C)(C)Cl (mixture of isomers)	> 10
CN1C(=O)c2ccccc2OC12C=Cc1c(ccc3ccccc13)O2 (stereo not given)	22.9
CCCC(=O)NC(NC1CCCCC1)(C(=O)OCC)C(F)(F)F (stereo not given)	> 100
Cc1ccc2c(c1)C(=S)N1CSCC1c1nncn1-2 (stereo not given)	> 100
CC(C)NC(=O)OCc1c(COC(=O)NC(C)C)c(-c2cc[n+](COC(=O)C3CC3)cc2)n2c1CCC2	> 100
COC(=O)C1=C(C(=O)OC)N(c2ccc(OC)cc2[N+](=O)[O-])C(c2ccc(C)cc2)=CC1c1ccc(OC)cc1OC (stereo not given)	6.75
COc1cccc(C2c3cc4c(cc3OC(N3CCCCC3)C2C)OCO4)c1O (stereo not given)	41.7
CN(CCSCCN(C)C(=O)OC(C)(C)C)C(=O)OC(C)(C)C	> 100
CC1=C(C)CC2C(=O)N(c3cc(C(C)(C)C)ccc3C(C)(C)C)C(=O)C2C1 (stereo not given)	> 100
O=c1[nH]nnc2c1sc1ncccc12	> 100
Cc1ccc(C2SCC(=O)N2c2ccc(-n3c(-c4ccccc4)nc4ccccc4c3=O)cc2)cc1 (stereo not given)	48.5
O=[N+]([O-])c1ccc(CN(CCCl)OCCCl)cc1	> 100
CC1=NN(c2nc(N)nc(/C(C#N)=C\c3ccc([N+](=O)[O-])s3)n2)C(C)(C)C1	0.3
O=c1[nH]cnc2c1cnn2Cc1cn(CCCCO)nn1	> 100
CN1CCc2c([nH]c3ccccc23)C1	> 100
CC(C)(C)OC(=O)N(CCCCN(CCCNC(=O)C(F)(F)F)C(=O)OC(C)(C)C)CCCNC(=O)C(F)(F)F	> 100
CCOC1(OCC)C2C=CC1C(COS(=O)(=O)c1ccc(C)cc1)C2COS(=O)(=O)c1ccc(C)cc1 (stereo not given)	> 100
Cc1[nH]c(=O)nc2nc3ccc(Cl)cc3c(NCCNCCO)c12	21

The compounds below were run on M14 melanoma (assay: growth of human tumour cells (NCI), 48 h).

Structure (SMILES)	TGI [µM]
O=[N+]([O-])C[C@@]12O[C@]3(O)C4C5CC(C6C5C3C61)C42 (stereo not given in full)	> 100
C=C(Cl)C(=CCl)CCC(Br)C(C)(C)Cl (mixture of isomers)	> 10
CN1C(=O)c2ccccc2OC12C=Cc1c(ccc3ccccc13)O2 (stereo not given)	17.1
CCCC(=O)NC(NC1CCCCC1)(C(=O)OCC)C(F)(F)F (stereo not given)	> 100
Cc1ccc2c(c1)C(=S)N1CSCC1c1nncn1-2 (stereo not given)	> 100
CC(C)NC(=O)OCc1c(COC(=O)NC(C)C)c(-c2cc[n+](COC(=O)C3CC3)cc2)n2c1CCC2	> 100
COC(=O)C1=C(C(=O)OC)N(c2ccc(OC)cc2[N+](=O)[O-])C(c2ccc(C)cc2)=CC1c1ccc(OC)cc1OC (stereo not given)	> 100
COc1cccc(C2c3cc4c(cc3OC(N3CCCCC3)C2C)OCO4)c1O (stereo not given)	22.6
CN(CCSCCN(C)C(=O)OC(C)(C)C)C(=O)OC(C)(C)C	> 100
